Earlier results as cited in publication PMC10582678 (Clinical and Translational Science, 2023).
Like-named read-outs stand apart in the source and are kept apart here.

Target: BTK (Homo sapiens, UniProt Q06187)
Conditions: cited from earlier work

Sequence of BTK (Q06187 whole entry): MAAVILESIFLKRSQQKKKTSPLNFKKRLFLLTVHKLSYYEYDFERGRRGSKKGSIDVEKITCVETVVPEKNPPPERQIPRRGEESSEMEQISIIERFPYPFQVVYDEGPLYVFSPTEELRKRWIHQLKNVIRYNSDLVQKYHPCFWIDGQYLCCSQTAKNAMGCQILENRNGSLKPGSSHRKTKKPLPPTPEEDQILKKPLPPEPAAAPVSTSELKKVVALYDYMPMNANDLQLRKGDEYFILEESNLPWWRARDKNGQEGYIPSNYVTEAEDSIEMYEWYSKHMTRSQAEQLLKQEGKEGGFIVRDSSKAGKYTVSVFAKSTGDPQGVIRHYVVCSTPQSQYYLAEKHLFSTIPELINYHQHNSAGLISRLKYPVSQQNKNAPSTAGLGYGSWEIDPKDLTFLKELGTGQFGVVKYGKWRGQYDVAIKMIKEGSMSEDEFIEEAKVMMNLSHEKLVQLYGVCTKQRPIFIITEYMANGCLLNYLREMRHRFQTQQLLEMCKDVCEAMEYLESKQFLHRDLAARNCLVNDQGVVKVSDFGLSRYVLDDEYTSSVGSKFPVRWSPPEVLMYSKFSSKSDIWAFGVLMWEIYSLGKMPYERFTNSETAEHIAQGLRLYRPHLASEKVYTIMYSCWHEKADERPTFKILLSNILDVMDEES

## C=CC(=O)Nc1cccc(Nc2nc(Nc3ccc(OCCOC)cc3)ncc2F)c1 [spebrutinib]
b.i.d., patients with rheumatoid arthritis
  BTK receptor occupancy rate: 88%

## CC#CC(=O)N1CCC[C@H]1c1nc(-c2ccc(C(=O)Nc3ccccn3)cc2)c2c(N)nccn12 [acalabrutinib]
Twice daily dosing regimen
  BTK receptor occupancy rate: 96%
